Patent US20250361214A1, “TRIAZINE LIPIDS, LIPID SYNTHESIS, AND METHODS FOR INHIBITING CANONICAL NFKB TRANSCRIPTIONAL ACTIVITY” (University of Kentucky Research Foundation, priority 2022, published 2025)

Key:
in vitro = type: cell-based; conditions: female, C57BL/6J, mouse
Procedure: Cell Culture of Bone Marrow-Derived Macrophages. […] After 7 days, the cells were transferred to tissue culture 96 well plates (Corning) at a density of 100,000 in 20 μL of medium and allowed to settle overnight for subsequent assays.
Lactate Dehydrogenase Release (LDH) Toxicity Assay. For determination of cytotoxicity, mature bone marrow-derived macrophages (BMDM) were treated with 20 μL of the lipids (concentrations denoted in figure legend) diluted in 20 mM HEPES buffer, with HEPES buffer as negative control and 10% Triton X-100 as positive control. After 24 hours, the 96 well plates were centrifuged at 200×g for 5 minutes to remove debris and 100 μL of media was transferred to an untreated flat-bottom 96 well plate. Next, 100 μL of LDH reaction reagent purchased from Cayman Chemical (Ann Arbor, MI) was added to each and allowed to sit for 30 minutes at 37° C. Absorbance at 490 and 680 nm were measured using a BioTek Synergy H1 plate reader and the data were processed using Microsoft Excel. Mean values from triplicates are shown for one of two independent experiments.

[1] = Differential scanning calorimetry, transition temperature (Tm) of lipids; type: physicochemical; conditions: liposomes of pure lipid, 10 mM in 20 mM HEPES, DSC
Procedure: Differential Scanning calorimetery. The transition temperature (Tm) of the lipids was determined using a multicell differential scanning calorimeter (TA Instruments). Liposomes were made with triazine lipids at a concentration of 10 mM in 20 mM HEPES buffer. These were heated to 60° C. and sonicated until the solution was translucent. For Tm determination, 250 μL of the liposome solution was transferred into reusable hastelloy ampoules while 250 μL of the HEPES solution was transferred to the third ampoule, leaving the reference ampoule empty. […] Data was collected over a range of 10-110° C. at a rate of 2° C. min-1 in a heat-cool-heat cycle. After the run was complete, the CpCalc 2.1 software package was used to convert the raw data into a molar heat capacity and the data from the second heating cycle were processed using Microsoft Excel.

**Q.** With `CCCCCCCCCCCCN(CCCCCCCCCCCC)c1nc(NCCCN)nc(NCCCN)n1` [Lipid 3] as the compound, how does the IC50 at 24 h (in vitro) read?
**A.** 111 µM

**Q.** And the Tm [1]?
**A.** < 10 °C
